Results reported in patent US12419966B2, “In vivo radical-mediated polymerization for targeted delivery of trophic factors” (RUTGERS, THE STATE UNIVERSITY OF NEW JERSEY, priority 2017, dated 2025).

Tested on: Rat cortical neurons
Test: Rat cortical neuron cytotoxicity (MTT)
Format: cell-based
Details: above 500 μM
Protocol: Rat Cortical Neuron Culture and Cellular Protection Studies (Cytotoxicity and Protection): Rat cortical neurons were isolated from a timed pregnant animal at embryonic day 18 as described in the literature via techniques commonly employed in the literature. Neurons were cultured in Neurobasal media containing 2% B27 supplement, 1% KCl, 1% penicillin/streptomycin, and 0.5% L-glutamine and seeded into 96 well plates at a density of 100,000 cells/well. […] Cellular metabolic activity was then evaluated using the Vybrant MTT assay (Life Technologies) according to the manufacturer's instructions. […] Metabolic activity was again measured using the MTT assay.
(3-(4,5-dimethylthiazol-2-yl)-2,5-diphenyltetrazolium bromide) (MTT) was added to the cultures at 12 mM and allowed to incubate for 4 hours at 37° C. MTT was metabolized by mitochondrial activity to form an insoluble formazan product. The formazan product was solubilized by the addition of sodium dodecyl sulfate and further incubation for 4 hours. Absorbance measurements at 570 nm were collected to determine the amount of MTT that was metabolized by the culture and viability was reported as a percentage of MTT metabolized by uninjured control cultures.

## O=C1O[C@H]([C@@H](O)CO)C(O)=C1O [ascorbic acid]
  cellular activity of rat cortical neurons: decreases observed
